Source: US20230338564A1, “NEODEGRADER CONJUGATES” (Orum Therapeutics, Inc., priority 2020, published 2023)

Legend:
[1] = tested on: BT-474 breast cancer cell line; test: In vitro antiproliferation assay, General Procedure 1 (WST-8); format: cell-based; details: Homo sapiens, BT-474, read-out: IC50, BT-474, conjugates DAR 8, comparators DAR not given
Procedure: (§1) The ability of neoDegrader conjugates to inhibit cell growth was measured using in vitro anti-proliferation assay. […] Conjugates were diluted in complete cell growth medium using 4-fold serial dilutions and 100 µL was added per well. […] Viability of remaining cells was determined by colorimetric WST-8 assay (Dojindo Molecular Technologies, Inc., Rockville, MD, US). WST-8 was added to 10% of the final volume and plates were incubated at 37° C. in a humidified 5% CO2 incubator for 2-4 hours. Plates were analyzed by measuring the absorbance at 450 nm (A450) in a multi-well plate reader. Background A450 absorbance of wells with media and WST-8 only was subtracted from all values. The percent viability was calculated by dividing each treated sample value by the average value of wells with untreated cells. The percent viability value was plotted against the test sample concentration in a semi-log plot for each treatment. IC50 values were calculated automatically.

[2] = tested on: CFPAC-1 cell line (Pancreatic); test: as above; format: cell-based; details: Homo sapiens
Procedure: as §1

Daudi lymphoma cell line = test: as above; format: cell-based
Procedure: as §1

[3] = tested on: HCC1954 cell line (Breast); test: as above; format: cell-based; details: Homo sapiens, conjugates DAR 8
Procedure: as §1

[4] = tested on: JHUEM-3 cell line (Uterus); test: as above; format: cell-based
Procedure: as §1

[5] = tested on: NCI-H2030 cell line (Lung); test: as above; format: cell-based; details: Homo sapiens
Procedure: as §1

[6] = tested on: NCI-N87 gastric cancer cell line; test: as above; format: cell-based
Procedure: as §1

[7] = tested on: Ramos (non-Hodgkins lymphoma) cell line; test: as above; format: cell-based
Procedure: as §1

[8] = tested on: SK-BR-3 breast cancer cell line; test: as above; format: cell-based
Procedure: as §1

AGS cell line = test: In vitro antiproliferation assay, General Procedure 2 (CCK-8); format: cell-based; details: Homo sapiens, Gastric
Source text: (§2) Cell Culture: Cell lines were obtained from the American Type Culture Collection (ATCC, Manassas, VA, USA) or Deutsche Sammlung von Mikroorganismen und Zellkulturen (DSMZ, Braunschweig, Germany) and maintained according to the culturing conditions specified by ATCC or DSMZ. Cells were thawed out and maintained in culture for at least two passages before proceeding with experimental conditions.
(§3) Cytotoxicity assays: For adherent cell lines, the cells were dissociated with enzyme-free PBS-based cell dissociation buffer (Gibco, USA) and plated on tissue culture treated 96-well flat bottom polystyrene plates (Costar, Corning, USA) at appropriate cell densities depending on doubling time of the cells. 18 hours after plating, cells were treated with test articles at appropriate concentrations starting at 100 nM and diluted in 4-fold serial dilutions. For suspension cell lines, the cells were seeded on the same day of treatment and cells were treated as described above. Adherent cells were treated for 5 days and suspension cells were treated for 3 days. Cell proliferation was assessed using the Cell Counting Kit-8 (CCK-8, Dojindo Laboratories, Japan) and measurements were obtained using the Promega GloMax Discover plate reader (Promega, USA). Data were analyzed using GraphPad Prism software (GraphPad Software, San Diego, CA). All data points were obtained from technical triplicates and the experiments were validated using three biological replicates.

[9] = tested on: ASKA synovial sarcoma cell line; test: as above; format: cell-based
Source text: as §2, §3

Daudi cell line = test: as above; format: cell-based; details: Homo sapiens, NHL
Source text: as §2, §3

HL-60 cell line = test: as above; format: cell-based; details: Homo sapiens, HL-60; AML; read-out: IC50, HL-60
Source text: as §2, §3

[10] = tested on: HS-SY-II synovial sarcoma cell line; test: as above; format: cell-based
Source text: as §2, §3

JHUEM3 cell line = test: as above; format: cell-based; details: Endometrial
Source text: as §2, §3

KE39 cell line = test: as above; format: cell-based; details: Gastric
Source text: as §2, §3

LOVO cell line = test: as above; format: cell-based; details: Homo sapiens, Colon
Source text: as §2, §3

MV4-11 cell line = test: as above; format: cell-based; details: Homo sapiens, MV4-11; Biphenotypic B myelomonocytic leukemia; read-out: IC50, MV4-11
Source text: as §2, §3

Molp8 cell line = test: as above; format: cell-based; details: Homo sapiens, MOLP-8; MM
Source text: as §2, §3

OCI-AML2 cell line = test: as above; format: cell-based; details: Homo sapiens, OCI-AML2; Acute myeloid leukemia; read-out: IC50, OCI-AML2
Source text: as §2, §3

OCI-AML4 cell line = test: as above; format: cell-based; details: Acute myeloid leukemia; read-out: IC50, OCI-AML4
Source text: as §2, §3

OCI-M1 cell line = test: as above; format: cell-based; details: Acute myeloid leukemia
Source text: as §2, §3

PL-21 cell line = test: as above; format: cell-based; details: Acute myeloid leukemia
Source text: as §2, §3

SK-BR-3 cell line = test: as above; format: cell-based; details: Homo sapiens, Breast, read-out: IC50, SKBR3
Source text: as §2, §3

SKM-1 cell line = test: as above; format: cell-based; details: Homo sapiens, SKM-1; Acute myeloid leukemia; read-out: IC50, SKM-1
Source text: as §2, §3

SKOV3 cell line = test: as above; format: cell-based; details: Homo sapiens, SK-OV-3; Ovarian
Source text: as §2, §3

THP-1 cell line = test: as above; format: cell-based; details: Homo sapiens, AML
Source text: as §2, §3

EOL-1 cell line = test: as above; format: cell-based, human; details: Homo sapiens, EOL1; Acute myeloid leukemia; read-out: IC50, EOL-1
Source text: as §2, §3

IC50 [1]: 13 nM
IC50 (Daudi lymphoma cell line; Homo sapiens, Daudi): > 100 nM
IC50 [3]: > 100 nM
IC50 [5]: > 100 nM
IC50 ([6]; Homo sapiens, NCI-N87, Gastric, conjugates DAR 8): > 100 nM
IC50 ([7]; Homo sapiens, Ramos): > 100 nM
IC50 ([8]; Homo sapiens, SK-BR-3, Breast, conjugates DAR 8): 100 nM
IC50 (AGS cell line): > 1000 nM
IC50 [9]: 71.2 nM
IC50 (Daudi cell line): 47.4 nM
IC50 (HL-60 cell line): 12.3 nM
IC50 [10]: 11.7 nM
IC50 (LOVO cell line): > 1000 nM
IC50 (MV4-11 cell line): 2.72 nM
IC50 (OCI-AML2 cell line): 95.9 nM
IC50 (OCI-AML4 cell line): 22.4 nM
IC50 (OCI-M1 cell line): > 1000 nM
IC50 (SK-BR-3 cell line): 100 nM
IC50 (SKM-1 cell line): 3.21 nM
IC50 (SKOV3 cell line): 114 nM
IC50 (THP-1 cell line): 350 nM
SMILES: CNCCOCCc1ccc(NC(=O)NCc2ccc3c(c2)CN(C2CCC(=O)NC2=O)C3=O)cc1Cl (centres unmarked) [Compound P1, 1-(3-chloro-4-[2-[2-(methylamino)ethoxy]ethyl]phenyl)-3-[[2-(2,6-dioxopiperidin-3-yl)-1-oxo-3H-isoindol-5-yl]methyl]urea]
IC50 [2]: > 100 nM
antiproliferative activity compared, in words (Daudi lymphoma cell line; Daudi cells, rituximab neoDegrader conjugates versus comparators, FIGS. 14 and 15): less active
IC50 [4]: > 100 nM
anti-proliferative activity compared, in words ([6]; NCI-N87 cells, neoDegrader conjugates (DAR 8) versus comparators, FIGS. 16 and 17): significantly less active
antiproliferative activity compared, in words ([7]; Ramos cells, rituximab neoDegrader conjugates versus comparators, FIG. 13): less active
anti-proliferative activity compared, in words ([8]; SK-BR-3 cells, neoDegrader conjugates (DAR 8) versus comparators, FIGS. 7 and 8): significantly less active
IC50 (JHUEM3 cell line): > 1000 nM
IC50 (KE39 cell line): > 1000 nM
IC50 (Molp8 cell line): 23.7 nM
IC50 (PL-21 cell line): 7.55 nM
IC50 (EOL-1 cell line): 3.1 nM
